Several values for one entry are separate records, joined by “and”; a condition that tells them apart may be missing. Identical values can stand only once.
What was measured:
[1] = molecular target: D2 receptor; assay: Affinity to D2 receptor; set-up: species or system rat; details: read-out: Affinity to D2 receptor (MIC50; mole concentration for 50% inhibition of binding); 2.0 nM spiperone
[2] = tested on: dopamine release, tuberculum olfactorium; assay: Release of biogenic amines from brain tissue: dopamine, tuberculum olfactorium; assay type: in vivo, Wistar rats
[3] = Toxicity screening using primary cultured hepatocyte (LDH release); assay type: cell-based, rat; details: rat, primary hepatocytes, 24 hr, control 0.5% saline or 0.5% DMSO, read-out: Percent control of LDH release
Experimental: The hepatocytes was prepared from rat liver by collagenase perfusion method and suspension containing 5×10^5 cells/ml were prepared. After cultivation for 24 hr, the suspension was exchanged to the William's Medium E (GIBCO BRL) containing 10 or 100 μM of the compounds of this invention. After cultivation for 24 hr, the activity of lactate dehydrogenase (LDH) released in the medium was measured.

[4] = molecular target: α2 receptor; assay: Affinity to α2 receptor; set-up: species or system rat; details: read-out: Affinity to α2 receptor (MIC50; mole concentration for 50% inhibition of binding); 0.7 nM ^3H-rauwolscine
[5] = molecular target: T1, human platelet MAO-B (Homo sapiens, UniProt P27338); assay: biochemical; details: 10^-5 M; read-out: Inhibition rate of MAO-B
T1 construct: The suspension was used as enzyme for MAO activity assay in blood platelets; from tissue; host or cells: human blood platelets (frozen, thawed and sonicated platelet rich plasma)
T1 sequence (P27338 1-520): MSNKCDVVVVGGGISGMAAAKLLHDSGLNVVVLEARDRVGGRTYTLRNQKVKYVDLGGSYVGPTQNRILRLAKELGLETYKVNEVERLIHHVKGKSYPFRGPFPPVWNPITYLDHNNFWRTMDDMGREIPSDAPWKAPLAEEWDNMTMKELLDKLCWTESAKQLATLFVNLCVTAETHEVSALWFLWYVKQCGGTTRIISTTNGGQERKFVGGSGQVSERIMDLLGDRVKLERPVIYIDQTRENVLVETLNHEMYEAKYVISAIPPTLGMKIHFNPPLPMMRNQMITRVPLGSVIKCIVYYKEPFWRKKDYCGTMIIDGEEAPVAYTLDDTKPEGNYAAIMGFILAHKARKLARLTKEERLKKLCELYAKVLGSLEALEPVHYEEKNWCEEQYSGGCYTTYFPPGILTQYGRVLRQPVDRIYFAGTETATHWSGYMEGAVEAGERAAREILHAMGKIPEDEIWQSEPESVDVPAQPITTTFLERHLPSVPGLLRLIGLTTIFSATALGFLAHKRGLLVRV
Experimental: Human blood added with 3.8% citric acid was centrifuged at 950 rpm for 10 min and platelet rich plasma (PRP) was obtained. The residual blood cell was centrifuged at 3,000 rpm for 10 min and platelet poor plasma (PPP) was obtained. After blood platelets were measured from a part of PRP, PRP and PPP were frozen at -20° C. They were thawed and were sonicated to be dispersed and suspended when MAO activity was measured. The suspension was used as enzyme for MAO activity assay in blood platelets. In addition, almost all of MAO in blood platelets have been known to be B type.
MAO-B activity was determined according to the method described in Biochem. Pharmacol., 14, 1684-1685 (1965). […] The mixture was incubated at 37° C. for 5 min. After 80 μl of PRP or PPP was added to it, the mixture was incubated at 37° C. for 20 min. Thereafter, 120 μl of substrate (0.33 mg/ml kynuramine dihydrobromide) was added thereto. After incubation at 37° C. for 30 min, 800 μl of 10% trichloroacetic acid were added to stop the reaction and the solution was centrifuged at 3,000 rpm for 10 min. To 1 ml of the supernatant, 2 ml of 1 N NaOH was added and fluorescence of the solution was measured at Ex 312 nm and Em 380 nm. PRP was prepared to 250,000 cell/μl as amounts of blood platelets with […] phosphate buffer solution and 4-hydroxyquinoline was used as standard for measurement.

Compound | IC50 [1] [nM] | Release of dopamine, tuberculum olfactorium ([2]; 0.005 mg/kg s.c.) | Release of dopamine, tuberculum olfactorium ([2]; 0.01 mg/kg s.c., Hydrochloride) | Release of dopamine, tuberculum olfactorium ([2]; 0.05 mg/kg s.c.) | Release of dopamine, tuberculum olfactorium ([2]; 0.25 mg/kg s.c.) | Release of dopamine, tuberculum olfactorium ([2]; 1.00 mg/kg s.c.) | Release of dopamine, tuberculum olfactorium ([2]; 5.00 mg/kg s.c.) | activity at 24 h, 10 µM [3] [%] | activity at 24 h, 100 µM [3] [%] | IC50 [4] [nM] | inhibition at 10 µM [5] [%] | Release of dopamine, tuberculum olfactorium ([2]; 0.10 mg/kg s.c.)
CCCNC(CCC)Cc1c[nH]c2ccccc12.Cl (stereo not shown) [Compound No. 20, 1-(Indol-3-yl)-2-propylaminopentane Hydrochloride] | > 10000 | 7.0 ± 0.25 nmol/g tissue, for 20 min | 8.0 ± 0.17 nmol/g tissue, for 20 min and 5.5 ± 0.20 nmol/g tissue, for 20 min | 5.8 ± 0.19 nmol/g tissue, for 20 min | 3.5 ± 0.21 nmol/g tissue, for 20 min | 4.3 ± 0.07 nmol/g tissue, for 20 min | 4.8 ± 0.09 nmol/g tissue, for 20 min | 92.7 ± 5.31 | 185 ± 3.45 | 900 | 6.4 | –
CCCNC(CCC)Cc1ccc2c(c1)OCO2.Cl (stereo not shown) [Compound No. 27, 1-(1,3-Benzodioxol-5-yl)-2-propylaminopentane Hydrochloride] | – | – | – | – | 5.2 ± 0.23 nmol/g tissue, for 20 min | – | – | 115 ± 10.8 | 114 ± 11.2 | – | 34 | 4.7 ± 0.13 nmol/g tissue, for 20 min

— patent US6214859A, “Ethylamine derivatives” (Fujimoto Brothers Co., Ltd., priority 1997, dated 2001)
